{"source": "patent US10285994B2", "about": "“Method of preventing or treating osteoporosis by neddylation inhibitor” (Chang Gung University, priority 2017, dated 2019)", "key": {"[1]": {"system": "primary mouse bone marrow-derived macrophages (BMMs)", "assay": "Pit assay on Corning Osteo Surface, BMM-derived osteoclasts", "type": "cell-based", "conditions": "M-CSF, sRANKL, 7 days, FIG. 1B", "description": "FIGS. 1A-1D are data collected from primary mouse bone marrow-derived macrophages (BMMs) respectively incubated in the medium containing the soluble recombinant RANKL (sRANKL, 50 ng/ml), macrophage colony-stimulating factor (M-CSF, 40 ng/ml) and specified concentrations of MLN4924 for 7 days according to example 1.1 of the present disclosure. FIG. 1A: the photographs of TRAP staining depicting the differentiation of osteoclasts from BMMs. FIG. 1B: after the differentiation of osteoclasts in Corning Osteo Surface (a synthetic 3-dimensional structure that mimics in vivo bone for in vitro bone cell assays), the cells were removed, and the resorbed areas for confirming osteoclast activity were analyzed by 1% toluidine blue staining. FIG. 1C: the culture medium is subject to Biovision Cathepsin K Activity Fluorometric Assay Kit for the analysis of cathepsin K activity. FIG. 1D: the effect of effective doses of MLN4924 on the viability of BMMs is evaluated by MTT assay. Scale bar represents 100 μm. Data are expressed as mean±SD where *p<0.05; **p<0.01.\nThe pre-osteoclasts and RAW264.7 cells were seeded into Corning Osteo Surface Assay 96-wells plate (Corning, Kennebunk, Me.). […]\nThe effect of MLN4924 on the activity of osteoclast was then confirmed by pit assay. […] The resorbing areas on bone matrix by osteoclasts were visualized by 1% toluidine blue staining and quantified by image software."}, "[2]": {"system": "NFATc-1", "assay": "Western blot, sRANKL-induced NFATc-1 expression in RAW264.7 cells", "type": "cell-based, mouse", "conditions": "RAW264.7, 30 min pre-treatment, sRANKL 50 ng/ml, FIG. 3C-3D", "description": "(§1) FIGS. 3A-3D are data collected from Western blot analysis that respectively depict the expression of specified protein extracted from the RAW264.7 cells, which are pre-treated with specified concentrations of MLN4924 for 30 minutes followed by the stimulation of sRANKL (50 ng/ml) according to example 2 of the present disclosure. FIG. 3A: the time course effect of MLN4924 on the phosphorylations of ERK (pERK), P38 (pP38) and JNK (pJNK). FIG. 3B: the dose effect of MLN4924 on the phosphorylations of ERK (pERK), P38 (pP38) and JNK (pJNK). FIG. 3C: the time course effect of MLN4924 on the expression of NFATc-1. FIG. 3D: the dose effect of MLN4924 on the expression of NFATc-1. Mock: untreated control; R: sRANKL; M: MLN4924.\n(§2) The RAW264.7 cells were starved with serum-free medium for six hours and then treated with the specified treatments. At indicated time points, the cells were washed with cold phosphate-buffered saline (PBS) and lysed in RIPA buffer containing complete protease inhibitor cocktail (Roche). The cell lysates were separated by SDS-PAGE followed by Western blotting with the indicated antibodies, including NEDD8, APPBP1, UBA3.\nIn addition, ectopic expression of NFATc-1 in the pre-osteoclasts rendered the pre-osteoclast differentiated to osteoclasts in the absence of RANKL. […]"}, "[3]": {"system": "RAW264.7 cells", "type": "cell-based, mouse", "description": "(§3) FIGS. 2A-2D are data collected from RAW264.7 cells respectively incubated in the medium containing sRANKL (50 ng/ml) and specified concentrations of MLN4924 for 7 days according to example 1.2 of the present disclosure. FIG. 2A: the photographs of TRAP staining depicting the differentiation of osteoclasts from RAW264.7 cells. FIG. 2B: after the differentiation of osteoclasts in Corning Osteo Surface, the cells were removed, and the resorbed areas for confirming osteoclast activity were analyzed by 1% toluidine blue staining. FIG. 2C: the culture medium is subject to Biovision Cathepsin K Activity Fluorometric Assay Kit for the analysis of cathepsin K activity. FIG. 2D: the effect of effective doses of MLN4924 on the viability of RAW264.7 cells is evaluated by MTT assay. Scale bar represents 100 μm. Data are expressed as mean±SD where *p<0.05.\nIn addition to BMMs, the effect of MLN4924 on macrophage cell line RAW264.7 cells was also investigated. The RAW264.7 cells were cultured in the medium containing sRANKL and MLN4924 for 7 days, then subjected to osteoclast formation evaluation by TRAP staining."}, "[4]": {"system": "RAW264.7 cells", "assay": "Pit assay on Corning Osteo Surface, RAW264.7-derived osteoclasts", "type": "cell-based, mouse", "conditions": "sRANKL-activated RAW264.7 cells, 7 days, FIG. 2B", "description": "as §3\nThe pre-osteoclasts and RAW264.7 cells were seeded into Corning Osteo Surface Assay 96-wells plate (Corning, Kennebunk, Me.). Twenty-four hours later, the cells were treated with sRANKL (50 ng/ml) and specified concentrations of MLN4924 for 7 days. The cells were then harvested so as to evaluate the cathepsin K activity by use of Biovision Cathepsin K Activity Fluorometric Assay Kit (Biovision, Milpitas, Calif.). The Corning Osteo surface was stained with 1% toluidine blue for 24 hours and washed with deionized water twice. […]"}, "[5]": {"system": "ERK (pERK)", "assay": "Western blot, sRANKL-induced ERK phosphorylation in RAW264.7 cells", "type": "cell-based, mouse", "conditions": "RAW264.7, 30 min pre-treatment, sRANKL 50 ng/ml, FIG. 3A-3B", "description": "as §1, §2\nSpecifically, the inhibitory effect increased with an increase in the MLN4924 concentration (FIG. 3B)."}}}
{"smiles": "NS(=O)(=O)OC[C@@H]1C[C@@H](n2ccc3c(N[C@H]4CCc5ccccc54)ncnc32)C[C@@H]1O", "note": "[MLN4924, (1S,2S,4R)-4-(4-((1S)-2,3-Dihydro-1H-inden-1-ylamino)-7H-pyrrolo(2,3-d)pyrimidin-7-yl)-2-hydroxycyclopentyl) methyl sulphamate]", "values": [{"measurement": "resorbing activity of osteoclasts (pit assay, toluidine blue)", "setting": "[1]", "value": "suppressed the resorbing activity of osteoclasts in a dose-dependent manner"}, {"measurement": "expression of NFATc-1 induced by sRANKL", "setting": "[2]", "value": "significant suppressed"}, {"measurement": "cell viability of RAW264.7 cells", "setting": "[3]", "value": "did not affect cell viability"}, {"measurement": "bone matrix resorption of osteoclasts", "setting": "[4]", "value": "significantly inhibited"}, {"measurement": "sRANKL-upregulated phosphorylation of ERK (pERK)", "setting": "[5]", "value": "inhibited"}]}
